Laboratory results from US10004754B2, “ANP fragment adjuvant therapy to standard of care (SOC) diuretic treatment” (MADELEINE PHARMACEUTICALS PTY LTD, priority 2014, dated 2018).
Where no end group is shown, it is not given here.

Assays:
clinical = test: clinical; design: species or system human; conditions: in vivo
stable CHF patients = test: Renal function (eGFR, plasma creatinine, MAG3 clearance) with sc VSDL infusion, Example 2; format: in vivo, human; conditions: for Plasma Creatinine % Change: given without sign, a decrease; for Plasma Creatinine: baseline 161.7 ± 58; for MAG3 Clearance % change: Post-Treatment vs Pre-Treatment
Experimental: A second study was conducted with a population of eighteen (18) test adult CHF patients, both male and female, in order to further evaluate the improvement in renal and cardiac function in stable CHF patients given VSDL (by sc administration) in addition to standard of care (SOC) treatment.
Participants were selected on the basis of the Inclusion and Exclusion criteria given in Example 1. […] In addition, selected patients were required to have a plasma brain natriuretic peptide (BNP) concentration of ≥100 pg/mL and a GFR ≥25 mL/min and <70 mL/min as calculated by the Cockroft Gault calculation (ie moderate renal impairment). On the other hand, the presence of acute MI (ie as indicated by ST elevation and/or elevation of Troponin-T) or evidence of MI or other high risk acute coronary syndrome within the past 6 weeks, hypotension (ie systolic blood pressure (SBP) <90 mmHg), persistent and/or uncontrolled hypertension (SBP>180 mmHg), cardiogenic shock or any other clinical condition that would contraindicate administration of an agent with potent vasodilatory effects, excluded patients from participating in the study. Participants in this study also had standard exclusion criteria that accompany pulmonary artery (SG) catheterisation.
The study was an open-label, sequential group, continuous sc infusion study conducted at a single centre. Two steady-state concentration levels (Css) of VSDL were targeted, approximately 10 ng/mL (n=2 lead-in, and n=10, cohort 1) and 20 ng/mL (n=6, cohort 2). The two lead-in patients were treated with similar dose regimens to confirm that the measured plasma concentrations were in agreement with the targeted Css. Two patients from cohort 1 and all 6 patients from cohort 2 underwent pulmonary artery Swan-Ganz (SG) catheterisation to enable haemodynamic monitoring.
VSDL prepared as described in Example 1, was administered via sc 6 or 12 hour infusion into the lower abdomen at a maximum volume rate of 350 μL/hr (ie approximately 6 μL/min). The rate of infusion of VSDL for the targeted Css level of 10 ng/mL was either 900 μg/hr (0.3 mL/hr) for 12 hrs or a bimodal infusion of 900 μg/hr for 5 hrs followed by 550 μg/hr (0.18 mL/hr) for 7 hrs. The rate of infusion of VSDL for the targeted Css level of 20 ng/mL was bimodal; 1800 μg/hr (0.20 mL/hr) for 5 hrs followed by 1100 μg/hr (0.12 mL/hr) for 7 hrs (see WO 2014/138796). For the lead-in patients, the infusions were performed at 900 μg/hr for 6 hrs.
R Studio (version 4) and GraphPad Prism (GraphPad Software, version 6) were used for all statistical analyses. Statistically significant changes from base line for all parameters were tested using with linear mixed effects model or one-way repeated measures ANOVA with Bonferroni correction. A p value of 0.05 was set for statistically significant differences. All data are reported as mean±s.d or mean (95% CI).
This change was also accompanied by a 10% decrease in plasma creatinine from 162±58 μmol/L at baseline to […] (p≤0.05) during infusion (Table 6).

Sequence: EVVPPQVLSEPNEEAGAALSPLPEVPPWTGEVSPAQR [VSDL]
- bioavailability (clinical; both sexes, human, sc): 19.2%
- CL Maximum Elimination rate, Pop value (clinical; human, sc): 26.8 L/h
- F Bioavailability, Pop value (clinical; human, sc): 26.894%
- ETASHARE Random effect scalinmg factor, Pop value (clinical): 1.000 ratio
- RUVADDIV Residual Error (Additive, I.V.), Pop value (clinical; iv): 0.248 ng/mL
- RUVCVIV Residual Error (Proportional, I.V.), Pop value (clinical; iv): 0.336 ratio
- FVOL Infused volume on F, Pop value (clinical; sc): 1.590 ratio
- KA Absorption rate constant, Pop value (clinical; sc): 0.625 h⁻¹
- LGT Logit F value, Pop value (clinical; sc): −1.00
- RUVADDSC Residual Error (Additive, S.C.), Pop value (clinical; sc): 0.070 ng/mL
- RUVCVSC Residual Error (Proportional, S.C.), Pop value (clinical; sc): 0.259 Ratio
- V2 S.C. bolus V scaling factor, Pop value (clinical; sc): 1.62 ratio
- V3 S.C. infusion V scaling factor, Pop value (clinical; sc): 3.65 ratio
- V Central volume, Pop value (clinical; sc): 13.20 L
- Plasma Creatinine % Change (stable CHF patients; >0.5-6 hs vs baseline): (8) %
- Plasma Creatinine (stable CHF patients; >0.5-6 hs): 148.5 ± 60 µmol/L
- Plasma Creatinine % Change (stable CHF patients; >6-12 hs vs baseline): (10) %
- Plasma Creatinine (stable CHF patients; >6-12 hs): 146 ± 60 µmol/L
- eGFR and plasma creatinine in relation to plasma concentration of VSDL (stable CHF patients; FIGS. 6A and B): improved with rising circulating levels of VSDL
- MAG3 Clearance, Post (Pre-Treatment) (stable CHF patients; Stage 3A CKD): 14 ± 7 ml/min/1.73 m^2
- MAG3 Clearance % change (stable CHF patients; Stage 3A CKD): (9) %
- MAG3 Clearance (stable CHF patients; Stage 3A CKD, Post-Treatment, Pre-Treatment 148.5 ± 26): 162.5 ± 24 ml/min/1.73 m^2
- MAG3 Clearance, Post (Pre-Treatment) (stable CHF patients; Stage 3B CKD): .3 ± 9 ml/min/1.73 m^2
- MAG3 Clearance % change (stable CHF patients; Stage 3B CKD): (0) %
- MAG3 Clearance (stable CHF patients; Stage 3B CKD, Post-Treatment, Pre-Treatment 164.5 ± 32): 164.8 ± 33 ml/min/1.73 m^2
- MAG3 Clearance, Post (Pre-Treatment) (stable CHF patients; Stage 4 CKD): 17 ± 16 ml/min/1.73 m^2
- MAG3 Clearance % change (stable CHF patients; Stage 4 CKD): (16) %
- MAG3 Clearance (stable CHF patients; Stage 4 CKD, Post-Treatment, Pre-Treatment 106.0 ± 58): 123.3 ± 56 ml/min/1.73 m^2
- eGFR and MAG3 clearance across all classes of CKD (stable CHF patients; adjuvant treatment with VSDL): numerical increases
- MAG3 Clearance, Post (Pre-Treatment) (stable CHF patients; all patients): 9 ± 12 ml/min/1.73 m^2
- MAG3 Clearance % change (stable CHF patients; all patients): (6) %
- MAG3 Clearance (stable CHF patients; all patients, Post-Treatment, Pre-Treatment 140.3 ± 44): 148.9 ± 41 ml/min/1.73 m^2
- decrease in plasma creatinine (stable CHF patients; during infusion vs baseline): 10%
- improvement in eGFR (stable CHF patients; during the 12 hour infusion vs baseline): 16%
- estimated glomerular filtration rate (eGFR) (stable CHF patients; during the 12 hour infusion, baseline 38±11, p≤0.05): 44±14 ml/min/1.73 m^2
- eGFR % Change (stable CHF patients; eGFR 15-29 (Stage 4 CKD), >0.5-6 hs vs baseline): (23) %
- eGFR (stable CHF patients; eGFR 15-29 (Stage 4 CKD), >0.5-6 hs, baseline 23.5 ± 5): 28.8 ± 10 ml/min/1.73 m^2
- eGFR (stable CHF patients; eGFR 15-29 (Stage 4 CKD), >6-12 hs, baseline 23.5 ± 5): 30 ± 12 ml/min/1.73 m^2
- eGFR % Change (stable CHF patients; eGFR 30 to 44 (Stage 3B CKD), >0.5-6 hs vs baseline): (12) %
- eGFR (stable CHF patients; eGFR 30 to 44 (Stage 3B CKD), >0.5-6 hs, baseline 37.7 ± 4): 42.3 ± 10 ml/min/1.73 m^2
- eGFR % Change (stable CHF patients; eGFR 30 to 44 (Stage 3B CKD), >6-12 hs vs baseline): (12) %
- eGFR (stable CHF patients; eGFR 30 to 44 (Stage 3B CKD), >6-12 hs, baseline 37.7 ± 4): 42.3 ± 10 ml/min/1.73 m^2
- eGFR % Change (stable CHF patients; eGFR 45-59 (Stage 3A CKD), >0.5-6 hs vs baseline): (8) %
- eGFR (stable CHF patients; eGFR 45-59 (Stage 3A CKD), >0.5-6 hs, baseline 49.8 ± 3): 54.0 ± 4 ml/min/1.73 m^2
- eGFR % Change (stable CHF patients; eGFR 45-59 (Stage 3A CKD), >6-12 hs vs baseline): (14) %
- eGFR (stable CHF patients; eGFR 45-59 (Stage 3A CKD), >6-12 hs, baseline 49.8 ± 3): 56.6 ± 4 ml/min/1.73 m^2
- renal function (eGFR, MAG3 clearance, plasma creatinine), trend (stable CHF patients; lead-in patients, 900 μg/hr sc for 6 hours): improved renal function
- eGFR % Change (stable CHF patients; patients with eGFR 15-60, >0.5-6 hs vs baseline): (12) %
- eGFR (stable CHF patients; patients with eGFR 15-60, >0.5-6 hs, baseline 37.9 ± 11): 42.6 ± 13 ml/min/1.73 m^2
- eGFR % Change (stable CHF patients; patients with eGFR 15-60, >6-12 hs vs baseline): (16) %
- eGFR (stable CHF patients; patients with eGFR 15-60, >6-12 hs, baseline 37.9 ± 11): 43.8 ± 14 ml/min/1.73 m^2
- MAG3 Clearance (stable CHF patients; post-treatment, pre-treatment 140±44, p≤0.05): 149±41 ml/min/1.73 m^2
